What was measured:
[1] = molecular target: PDE V (Homo sapiens, UniProt O76074); assay: PDE V inhibition; assay type: biochemical
[2] = solubility in water and wettability of the crystalline form; assay type: physicochemical
[3] = absorption and bioavailability tests in animals; assay type: in vivo

effectiveness as a PDE V inhibitor [1]: particularly effective | specificity for PDE isozyme [1]: specificity for the PDE V isozyme | solubility in water [2]: poor | wettability ([2]; crystalline form): poor | absorption from the gastrointestinal tract ([3]; in vivo): slow | bioavailability ([3]; tests conducted so far in animals): low
Compound: CCn1c(=O)c2c(nc(N[C@@H]3CCC[C@H]3O)n2Cc2ccc(OC)c(Br)c2)n(CCO)c1=O [7-[(3-Bromo-4-methoxyphenyl)methyl]-1-ethyl-3,7-dihydro-8-[[(1R,2R)-2-hydroxycyclopentyl]amino]-3-(2-hydroxyethyl)-1H-purine-2,6-dione]

From patent US20090074869A1, “PHARMACEUTICAL FORMULATIONS” (Schering Corporation, priority 2003, published 2009)
